# Results as given in patent US9815846B2 (Merck Sharp & Dohme Corp., priority 2014, dated 2017).
# Target: human TrkA receptor (Homo sapiens (Human), UniProt P04629)
# Assay: DiscoverX PathHunter TrkA functional assay (NGF-stimulated U2OS cells)
# Type: cell-based
# Conditions: U2OS cells expressing human TrkA-PK, Shc1-EA and p75NTR; compound 1 h, then NGF at ~80% of maximal response for 3 h; luminescence
# human TrkA receptor, sequence (P04629 33-796): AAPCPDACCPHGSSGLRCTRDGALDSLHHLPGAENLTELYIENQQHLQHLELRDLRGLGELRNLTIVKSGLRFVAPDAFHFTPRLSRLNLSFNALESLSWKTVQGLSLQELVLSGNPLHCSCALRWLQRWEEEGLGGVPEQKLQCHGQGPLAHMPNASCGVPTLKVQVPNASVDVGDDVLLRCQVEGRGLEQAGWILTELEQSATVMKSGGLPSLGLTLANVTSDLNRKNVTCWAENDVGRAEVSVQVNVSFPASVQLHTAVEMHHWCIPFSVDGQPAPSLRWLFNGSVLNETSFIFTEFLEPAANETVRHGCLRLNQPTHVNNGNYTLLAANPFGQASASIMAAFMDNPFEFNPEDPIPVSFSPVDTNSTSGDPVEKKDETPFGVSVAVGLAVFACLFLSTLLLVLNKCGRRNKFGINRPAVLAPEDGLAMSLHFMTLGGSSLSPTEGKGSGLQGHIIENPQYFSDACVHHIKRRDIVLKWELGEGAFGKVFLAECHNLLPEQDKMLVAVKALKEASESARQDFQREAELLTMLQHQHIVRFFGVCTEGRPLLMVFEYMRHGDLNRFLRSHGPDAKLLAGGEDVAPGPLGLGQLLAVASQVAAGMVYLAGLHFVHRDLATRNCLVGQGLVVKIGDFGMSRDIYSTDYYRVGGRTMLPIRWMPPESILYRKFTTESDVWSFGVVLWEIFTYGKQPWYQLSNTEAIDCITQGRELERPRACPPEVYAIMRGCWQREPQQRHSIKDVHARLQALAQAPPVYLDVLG
row,Structure (SMILES),IC50 [nM]
1,"Cn1ccc(-c2cc(C(=O)Nc3cc4c(nc3-c3ccccc3)CCN(CC(=O)O)C4)ccc2C(F)(F)F)n1 [Example 157, 2-(3-(3-(1-methyl-1H-pyrazol-3-yl)-4-(trifluoromethyl)benzamido)-2-phenyl-7,8-dihydro-1,6-naphthyridin-6(5H)-yl)acetic acid]",23
2,"Cn1ccc(-c2cc(C(=O)Nc3cc4c(nc3-c3ccccc3)CCN(CCO)C4)ccc2C(F)(F)F)n1 [Example 158, N-(6-(2-hydroxyethyl)-2-phenyl-5,6,7,8-tetrahydro-1,6-naphthyridin-3-yl)-3-(1-methyl-1H-pyrazol-3-yl)-4-(trifluoromethyl)benzamide]",7.5
3,"Cn1ccc(-c2cc(C(=O)Nc3cnc4c(c3-c3ccccc3)CCNC4=O)ccc2C(F)(F)F)n1 [Example 159, 3-(1-methyl-1H-pyrazol-3-yl)-N-(8-oxo-4-phenyl-5,6,7,8-tetrahydro-1,7-naphthyridin-3-yl)-4-(trifluoromethyl)benzamide]",260
4,"Cn1ccc(-c2cc(C(=O)Nc3cnc4c(c3-c3ccccc3)CN(C(=O)CO)CC4)ccc2C(F)(F)F)n1 [Example 160, N-(6-(2-hydroxyacetyl)-4-phenyl-5,6,7,8-tetrahydro-1,6-naphthyridin-3-yl)-3-(1-methyl-1H-pyrazol-3-yl)-4-(trifluoromethyl)benzamide]",4.7
5,"O=C(Nc1cc2c(nc1-c1ccccc1)CN(C(=O)CO)C2)c1cc(-c2ncccn2)c(C(F)(F)F)cc1F [Example 162, 2-fluoro-N-(6-(2-hydroxyacetyl)-2-phenyl-6,7-dihydro-5H-pyrrolo[3,4-b]pyridin-3-yl)-5-(pyrimidin-2-yl)-4-(trifluoromethyl)benzamide]",180
6,"NC(=O)c1ccc(-c2cnc(-c3ccccc3)c(NC(=O)c3cc(-c4cc[nH]n4)c(C(F)(F)F)cc3F)c2)cc1 [Example 165, N-(5-(4-carbamoylphenyl)-2-phenylpyridin-3-yl)-2-fluoro-5-(1H-pyrazol-3-yl)-4-(trifluoromethyl)benzamide]",2.3
7,"CNC(=O)c1ccc(-c2cnc(-c3ccccc3)c(NC(=O)c3cc(-c4cc[nH]n4)c(C(F)(F)F)cc3F)c2)cc1 [Example 166, 2-fluoro-N-(5-(4-(methylcarbamoyl)phenyl)-2-phenylpyridin-3-yl)-5-(1H-pyrazol-3-yl)-4-(trifluoromethyl)benzamide]",12
8,"O=C(Nc1cc(Oc2ccccn2)cnc1-c1ccccc1)c1cc(-c2ncccn2)c(C(F)(F)F)cc1F [Example 167, 2-fluoro-N-(2-phenyl-5-(pyridin-2-yloxy)pyridin-3-yl)-5-(pyrimidin-2-yl)-4-(trifluoromethyl)benzamide]",24
9,"CC(=O)NCc1cnc(-c2cnc(-c3ccccc3)c(NC(=O)c3cc(-c4ncccn4)c(C(F)(F)F)cc3F)c2)nc1 [Example 170, N-(5-(5-(acetamidomethyl)pyrimidin-2-yl)-2-phenylpyridin-3-yl)-2-fluoro-5-(pyrimidin-2-yl)-4-(trifluoromethyl)benzamide]",16
10,"Cn1ccc(-c2cc(C(=O)Nc3cc(-c4ccc(C(=O)O)cn4)cnc3-c3ccccc3)c(F)cc2C(F)(F)F)n1 [Example 171, 5′-(2-fluoro-5-(1-methyl-1H-pyrazol-3-yl)-4-(trifluoromethyl)benzamido)-6′-phenyl-[2,3′-bipyridine]-5-carboxylic acid]",10
11,"NC(=O)c1ccnc(-c2cnc(-c3ccccc3)c(NC(=O)c3cc(-c4ncccn4)c(C(F)(F)F)cc3F)c2)n1 [Example 173, 2-(5-(2-fluoro-5-(pyrimidin-2-yl)-4-(trifluoromethyl)benzamido)-6-phenylpyridin-3-yl)pyrimidine-4-carboxamide]",4.9
12,"CNC(=O)c1ccc(-c2cnc(-c3ccccc3)c(NC(=O)c3cc(-c4ncccn4)c(C(F)(F)F)cc3F)c2)nc1 [Example 174, 5′-(2-fluoro-5-(pyrimidin-2-yl)-4-(trifluoromethyl)benzamido)-N-methyl-6′-phenyl-[2,3′-bipyridine]-5-carboxamide]",4.8
13,"NC(=O)c1ncc(-c2cnc(-c3ccccc3)c(NC(=O)c3cc(-c4ncccn4)c(C(F)(F)F)cc3F)c2)cn1 [Example 175, 5-(5-(2-fluoro-5-(pyrimidin-2-yl)-4-(trifluoromethyl)benzamido)-6-phenylpyridin-3-yl)pyrimidine-2-carboxamide]",12.4
14,"O=C(Nc1cc(OCc2ccncc2)cnc1-c1ccccc1)c1cc(-c2ncccn2)c(C(F)(F)F)cc1F [Example 176, 2-fluoro-N-(2-phenyl-5-(pyridin-4-ylmethoxy)pyridin-3-yl)-5-(pyrimidin-2-yl)-4-(trifluoromethyl)benzamide]",6.3
15,"NC(=O)N1CCN(c2cnc(-c3ccccc3)c(NC(=O)c3cc(-c4ncccn4)c(C(F)(F)F)cc3F)c2)CC1 [Example 177, 4-(5-(2-fluoro-5-(pyrimidin-2-yl)-4-(trifluoromethyl)benzamido)-6-phenylpyridin-3-yl)piperazine-1-carboxamide]",18
16,"CCn1c(Cc2ncc(NC(=O)c3cc(-c4ccn(C)n4)c(C(F)(F)F)cc3F)c(-c3ccccc3)n2)n[nH]c1=O [Example 180, N-(2-((4-ethyl-5-oxo-4,5-dihydro-1H-1,2,4-triazol-3-yl)methyl)-4-phenylpyrimidin-5-yl)-2-fluoro-5-(1-methyl-1H-pyrazol-3-yl)-4-(trifluoromethyl)benzamide]",3.2
17,"Cn1ccc(-c2cc(C(=O)Nc3cnc(CN4CCN(S(C)(=O)=O)CC4)nc3-c3ccccc3)c(F)cc2C(F)(F)F)n1 [Example 182, 2-Fluoro-5-(1-methyl-1H-pyrazol-3-yl)-N-(2-((4-(methylsulfonyl)piperazin-1-yl)methyl)-4-phenylpyrimidin-5-yl)-4-(trifluoromethyl)benzamide]",5.1
18,"Cn1ccc(-c2cc(C(=O)Nc3ccc(CN4CC5(COC5)C4)nc3-c3ccccc3)c(F)cc2C(F)(F)F)n1 [Example 183, N-(6-((2-oxa-6-azaspiro[3.3]heptan-6-yl)methyl)-2-phenylpyridin-3-yl)-2-fluoro-5-(1-methyl-1H-pyrazol-3-yl)-4-(trifluoromethyl)benzamide]",7
19,"Cn1ccc(-c2cc(C(=O)Nc3cnc(CN4C[C@@H](O)[C@@H](O)C4)nc3-c3ccccc3)c(F)cc2C(F)(F)F)n1 [Example 184, N-(2-(((3S,4R)-3,4-dihydroxypyrrolidin-1-yl)methyl)-4-phenylpyrimidin-5-yl)-2-fluoro-5-(1-methyl-1H-pyrazol-3-yl)-4-(trifluoromethyl)benzamide]",4.1

# Further compounds by falling IC50, results first:
row,IC50 [nM],Structure (SMILES)
1,2.3,"NC(=O)N1CCc2nc(-c3ccccc3)c(NC(=O)c3cc(-c4ncccn4)c(C(F)(F)F)cc3F)cc2C1 [Example 155, 3-(2-fluoro-5-(pyrimidin-2-yl)-4-(trifluoromethyl)benzamido)-2-phenyl-7,8-dihydro-1,6-naphthyridine-6(5H)-carboxamide]"
2,1.3,"C[C@@H](O)C(=O)N1CCc2nc(-c3ccccc3)c(NC(=O)c3ccc(C(F)(F)F)c(-c4ccn(C)n4)c3)cc2C1 [Example 163, (R)-N-(6-(2-hydroxypropanoyl)-2-phenyl-5,6,7,8-tetrahydro-1,6-naphthyridin-3-yl)-3-(1-methyl-1H-pyrazol-3-yl)-4-(trifluoromethyl)benzamide]"
3,1,"Cn1ccc(-c2cc(C(=O)Nc3cc4c(nc3-c3ccccc3)CCN(C(=O)CN)C4)ccc2C(F)(F)F)n1 [Example 156, N-(6-glycyl-2-phenyl-5,6,7,8-tetrahydro-1,6-naphthyridin-3-yl)-3-(1-methyl-1H-pyrazol-3-yl)-4-(trifluoromethyl)benzamide]"
4,1,"Cn1ccc(-c2cc(C(=O)Nc3cnc(Cc4nnnn4C)nc3-c3ccccc3)c(F)cc2C(F)(F)F)n1 [Example 179, 2-Fluoro-5-(1-methyl-1H-pyrazol-3-yl)-N-(2-((1-methyl-1H-tetrazol-5-yl)methyl)-4-phenylpyrimidin-5-yl)-4-(trifluoromethyl)benzamide]"
5,0.76,"Cn1ccc(-c2cc(C(=O)Nc3cc4c(nc3-c3ccccc3)CCN(C(N)=O)C4)c(F)cc2C(F)(F)F)n1 [Example 154, 3-(2-fluoro-5-(1-methyl-1H-pyrazol-3-yl)-4-(trifluoromethyl)benzamido)-2-phenyl-7,8-dihydro-1,6-naphthyridine-6(5H)-carboxamide]"
6,0.68,"O=C(Nc1cc(-c2ccc(CO)cn2)cnc1-c1ccccc1)c1cc(-c2ncccn2)c(C(F)(F)F)cc1F [Example 168, 2-fluoro-N-(5-(hydroxymethyl)-6′-phenyl-[2,3′-bipyridin]-5′-yl)-5-(pyrimidin-2-yl)-4-(trifluoromethyl)benzamide]"
7,0.59,"NC(=O)c1cnc(-c2cnc(-c3ccccc3)c(NC(=O)c3cc(-c4ncccn4)c(C(F)(F)F)cc3F)c2)nc1 [Example 169, 2-(5-(2-fluoro-5-(pyrimidin-2-yl)-4-(trifluoromethyl)benzamido)-6-phenylpyridin-3-yl)pyrimidine-5-carboxamide]"
8,0.51,"Cn1ccc(-c2cc(C(=O)Nc3cc(-c4ccc(C(N)=O)cn4)cnc3-c3ccccc3)c(F)cc2C(F)(F)F)n1 [Example 164, 5′-(2-Fluoro-5-(1-methyl-1H-pyrazol-3-yl)-4-(trifluoromethyl)benzamido)-6′-phenyl-[2,3′-bipyridine]-5-carboxamide]"
9,0.38,"Cn1ccc(-c2cc(C(=O)Nc3cc4c(nc3-c3ccccc3)CNC4=O)c(F)cc2C(F)(F)F)n1 [Example 161, 2-fluoro-5-(1-methyl-1H-pyrazol-3-yl)-N-(5-oxo-2-phenyl-6,7-dihydro-5H-pyrrolo[3,4-b]pyridin-3-yl)-4-(trifluoromethyl)benzamide]"
10,0.29,"CC(N)c1ccc(-c2cnc(-c3ccccc3)c(NC(=O)c3cc(-c4ccn(C)n4)c(C(F)(F)F)cc3F)c2)nc1 (stereo not drawn) [Example 178, N-(5-(1-aminoethyl)-6′-phenyl-[2,3′-bipyridin]-5′-yl)-2-fluoro-5-(1-methyl-1H-pyrazol-3-yl)-4-(trifluoromethyl)benzamide]"
11,0.26,"Cn1ccc(-c2cc(C(=O)Nc3cc(-c4ccc(C(C)(C)O)cn4)cnc3-c3ccccc3)c(F)cc2C(F)(F)F)n1 [Example 172, 2-fluoro-N-(5-(2-hydroxypropan-2-yl)-6′-phenyl-[2,3′-bipyridin]-5′-yl)-5-(1-methyl-1H-pyrazol-3-yl)-4-(trifluoromethyl)benzamide]"
